Measured values as given in US20230373972A1, “PIPERAZINE DERIVATIVE, PREPARATION METHOD THEREFOR AND USE THEREOF” (Zhejiang Hisun Pharmaceutical Co., Ltd., priority 2020, published 2023).

Legend:
human plasma = assay: In-vitro anticoagulation on human plasma (APTT kit, coagulation time); conditions: concentration of the compound when the coagulation time (APTT) was prolonged twice
Experimental: The following method was used to determine the in-vitro anticoagulation of the compound of the present invention in the human plasma. In the method, an APTT kit of the MediRox company was used to test. The APTT kit was purchased from MediRox (article number MRX930), and the human plasma was prepared internally.
The preparation of the human plasma was briefly described as follows: human plasma was collected in a blood collection tube containing sodium citrate, and centrifuged at 3,000 rpm for 10 minutes at room temperature, and plasma was collected, and packaged separately and stored at −80° C.
An APTT test process was briefly described as follows: a test compound was dissolved in DMSO to prepare a 10 mM storage solution first, then the test compound was diluted with DMSO by a triple gradient, and a final concentration of the test compound in a reaction system ranged from 217 μM to 0.03 μM. 4 μL, of test compounds at different concentrations diluted with DMSO were added to a centrifuge tube containing 180 μL of plasma, and 4 μL of DMSO was added to a blank group, shaken and mixed evenly, and incubated at 37° C. for 5 minutes. Subsequently, an APTT reagent was placed in a reagent holder according to instrument requirements, the incubated plasma sample was placed in a detection position of a coagulation analyzer, and a coagulation time was determined and recorded (s). With a final concentration of the compound as an abscissa and Ratio (Ratio=TiT0, wherein T0 was a coagulation time of a blank control, and Ti was a coagulation time of a compound to be tested) as an ordinate, a coagulation dose-effect curve was drawn by Graph Pad Prisms, and a concentration of the compound when the coagulation time was prolonged twice was calculated, which was namely a CT2 value, as shown in Table 2.

[1] = biological target: T1, Native human Factor XIa protease (Homo sapiens, UniProt P03951); assay: Inhibition of activity of Factor XIa protease (chromogenic substrate S-2366); assay type: biochemical; conditions: S-2366 1 mM, 37° C. 10 minutes, absorption at 405 nm
T1 construct: The Native human Factor XIa protease was purchased from Abcam; purchased Abcam ab62411
T1 sequence (P03951 388-625 limits assumed): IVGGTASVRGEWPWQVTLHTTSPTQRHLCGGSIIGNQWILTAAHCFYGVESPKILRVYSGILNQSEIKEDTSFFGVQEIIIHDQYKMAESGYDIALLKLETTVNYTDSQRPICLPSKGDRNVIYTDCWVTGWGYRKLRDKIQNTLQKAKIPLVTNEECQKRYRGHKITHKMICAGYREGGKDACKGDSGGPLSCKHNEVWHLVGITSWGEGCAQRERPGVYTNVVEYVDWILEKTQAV
T1 sequence (P03951 19-387 partner limits assumed): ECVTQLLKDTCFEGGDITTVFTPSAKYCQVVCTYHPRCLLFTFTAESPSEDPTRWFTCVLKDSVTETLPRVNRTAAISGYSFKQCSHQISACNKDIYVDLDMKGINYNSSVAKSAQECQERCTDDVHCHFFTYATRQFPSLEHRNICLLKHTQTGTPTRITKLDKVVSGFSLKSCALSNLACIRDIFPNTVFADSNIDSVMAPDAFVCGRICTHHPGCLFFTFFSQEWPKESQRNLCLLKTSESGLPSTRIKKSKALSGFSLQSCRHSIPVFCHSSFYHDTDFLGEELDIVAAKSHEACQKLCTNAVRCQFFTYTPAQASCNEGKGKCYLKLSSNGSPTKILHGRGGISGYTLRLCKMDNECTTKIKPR
Source text: The following method was used to determine an inhibition degree of the compound of the present invention on an activity of Native human Factor XIa protease in vitro. In the method, a Factor XIa chromogenic substrate was used to test the inhibition degree on the activity of the Factor XIa protease. The Native human Factor XIa protease was purchased from Abcam (article number ab62411), and S-2366 was purchased from Chromogenix (article number 82109039). An experimental process was briefly described as follows: a test compound was dissolved in DMSO to prepare a 10 mM storage solution first, then the compound was diluted with a Factor XIa reaction buffer (100 mM Tris-HCl, 200 mM NaCl, 0.02% Tween 20, pH 7.4) by a quadruple gradient, and a final concentration of the test compound in a reaction system ranged from 10,000 nM to […]. The reaction was carried out in a 384-well microplate. 2 μL of the test compounds at different concentrations diluted with the reaction buffer were added to wells first, and 2 μL of 1% DMSO (a final concentration of DMSO in the reaction system was 0.1%) was used to replace blank and control wells. Subsequently, 8 μL of enzyme working solution (a final concentration of Factor XIa was […]) was added to each well, and 8 μL of Factor XIa reaction buffer was used to replace the blank well, centrifuged for 30 seconds, and incubated on ice for 5 minutes. Finally, 10 μL of substrate working solution (a final concentration of S-2366 was 1 mM) was added to each well, and centrifuged for 30 seconds, and the reaction was started. The solution was incubated at 37° C. for 10 minutes to determine a light absorption value at 405 nm. By comparing with a light absorption value of the control group (0.1% DMSO), a percentage inhibition rate of the compound at each concentration was calculated, and nonlinear regression analysis was carried out on value-inhibition rate with the concentration of the compound by GraphPad Prism 5 software, so as to obtain an IC50 value of the compound, as shown in Table 1.

| SMILES | CT2 (human plasma) [µM] | IC50 [1] [nM] |
| --- | --- | --- |
| Cn1ccc(C[C@@H](C(=O)Nc2ccc3nn(C)cc3c2)N2CC(=O)N(c3cc(Cl)ccc3-n3cc(Cl)nn3)CC2=O)n1 [Example 112, (S)-2-(4-(5-chloro-2-(4-chloro-1H-1,2,3-triazole-1-yl)phenyl)-2,5-dioxopiperazin-1-yl)-3-(1-methyl-1H-pyrazole-3-yl)-N-(2-methyl-2H-indazol-5-yl)propionamide] | 5.6 | 25.6 |
| O=C(O)c1ccc(NC(=O)C(Cc2ccccc2)N2CC(=O)N(c3cc(Cl)ccc3-n3cnnn3)CC2=O)cc1 (stereo not drawn) [Example 52, 4-(2-(4-(5-chloro-2-(1H-tetrazol-1-yl)phenyl)-2,5-dioxopiperazin-1-yl)-3-phenylpropanamido)benzoic Acid] | 2.0 | 17.6 |
| NC(=O)c1ccc(NC(=O)C(Cc2ccccc2)N2CC(=O)N(c3cc(Cl)ccc3-n3cnnn3)CC2=O)cc1F (stereo not drawn) [Example 35, 4-(2-(4-(5-Chloro-2-(1H-tetrazol-1-yl)phenyl)-2,5-dioxopiperazin-1-yl)-3-phenylpropanamido)-2-fluorobenzamide] | 5.8 | 32 |
| O=C(Nc1ccc2nccnc2c1)C(Cc1ccccc1)N1CC(=O)N(c2cc(Cl)ccc2-n2cnnn2)CC1=O (stereo not drawn) [Example 18, 2-(4-(5-Chloro-2-(1H-tetrazol-1-yl)phenyl)-2,5-dioxopiperazin-1-yl)-3-phenyl-N-(quinoxalin-6-yl)propanamide] | 7.9 | 20.5 |
| COC(=O)N1CCc2cc(NC(=O)C(Cc3ccccc3)N3CC(=O)N(c4cc(Cl)ccc4-n4cnnn4)CC3=O)ccc21 (stereo not drawn) [Example 8, Methyl 5-(2-(4-(5-chloro-2-(1H-tetrazol-1-yl)phenyl)-2,5-dioxopiperazin-1-yl)-3-phenylpropanamido)indoline-1-carboxylate] |  | 17.7 |
| CCOC(=O)c1ccc(NC(=O)C(Cc2ccccc2)N2CC(=O)N(c3cc(Cl)ccc3-n3cnnn3)CC2=O)cc1 (stereo not drawn) [Example 4, Ethyl 4-(2-(4-(5-chloro-2-(1H-tetrazol-1-yl)phenyl)-2,5-dioxopiperazin-1-yl)-3-phenylpropanamido) benzoate] |  | 49.8 |
| NC(=O)c1ccc(NC(=O)[C@H](Cc2ccccc2)N2CC(=O)N(c3cc(Cl)ccc3-n3cc(Cl)nn3)CC2=O)cc1F [Example 137, (S)-4-(2-(4-(5-chloro-2-(4-chloro-1H-1,2,3-triazol-1-yl)phenyl)-2,5-dioxopiperazin-1-yl)-3-phenylpropanamido)-2-fluorobenzamide] |  | 27.3 |
| O=C(Nc1ccc2nccnc2c1)C(Cc1ccccc1)N1CC(=O)N(c2cc(Cl)ccc2-n2cc(Cl)nn2)CC1=O (stereo not drawn) [Example 24, 2-(4-(5-Chloro-2-(4-chloro-1H-1,2,3-triazol-1-yl)phenyl)-2,5-dioxopiperazin-1-yl)-3-phenyl-N-(quinoxalin-6-yl)propanamide] |  | 23.2 |
| O=C(Nc1ccc(N2CCCC2=O)cc1)C(Cc1ccccc1)N1CC(=O)N(c2cc(Cl)ccc2-n2cnnn2)CC1=O (stereo not drawn) [Example 10, 2-(4-(5-Chloro-2-(1H-tetrazol-1-yl)phenyl)-2,5-dioxopiperazin-1-yl)-N-(4-(2-oxopyrrolidin-1-yl)phenyl)-3-phenylpropanamide] |  | 43.9 |
| COc1nccc2cc(NC(=O)C(Cc3ccccc3)N3CC(=O)N(c4cc(Cl)ccc4-n4cnnn4)CC3=O)ccc12 (stereo not drawn) [Example 23, 2-(4-(5-Chloro-2-(1H-tetrazol-1-yl)phenyl)-2,5-dioxopiperazin-1-yl)-N-(1-methoxyisoquinolin-6-yl)-3-phenylpropanamide] |  | 43.2 |
| O=C(Nc1ccn2nccc2c1)C(Cc1ccccc1)N1CC(=O)N(c2cc(Cl)ccc2-n2cc(Cl)nn2)CC1=O (stereo not drawn) [Example 40, 2-(4-(5-chloro-2-(4-chloro-1H-1,2,3-triazol-1-yl)phenyl)-2,5-dioxopiperazin-1-yl)-3-phenyl-N-(pyrazolo[1.5-a]pyridin-5-yl)propanamide] |  | 44.7 |
